3 compounds from US10047036B2, “Method for the synthesis of hydroxy-triglycerides and uses thereof for the prevention and treatment of diseases” (UNIVERSITAT DE LES ILLES BALEARS, priority 2014, dated 2018) can be followed below.

The test system of one experiment is systolic blood pressure. The experiment is described as follows: systolic blood pressure in spontaneously hypertensive rats. Format: in vivo. The settings on record: SHR rats; for Δ SP, change in systolic blood pressure: 14 days, 600 mg/kg every 12 hours, p.o., basal 216 mmHg. The text has this: Metabolic and cardiovascular pathologies are closely related. The overfeeding which characterises our society not only gives rise to problems of obesity and excess weight. It is also linked to the appearance of diabetes, dyslipidaemia, hypertension, strokes, arteriosclerosis, ictus, etc. All of these pathologies increase the risk of premature death and can even cause death. In this sense, certain natural oils show a certain efficacy against this type of pathologies, but their power is limited. In contrast, the molecules of the invention have an important effect against the development of this type of pathologies. To be able to study the effects of the compounds of the invention for the prevention and treatment of metabolic and cardiovascular pathologies, hypertensive rats were used (SHR strain, spontaneously hypertensive rats). These rats present obesity, high blood pressure, dyslipidaemia (hypercholesterolemia and hypertriglyceridemia), diabetes, metabolic syndrome and other related health problems. Hypertensive rats of the SHR strain (spontaneously hypertensive rats) with an approximate weight of 300 grams were treated with TGM1 during 9 days (400 mg/kg, every 12 h, p.o.). Systolic pressure was measured before starting the treatment (basal) and 9 days later. In these animals with a metabolic/cardiovascular pathology, this treatment with TGM1 produced drops in blood pressure of approximately 25 mmHg, while the 14-day treatments with 600 mg/kg of TGM1 induced even greater drops in systolic blood pressure of up to 37 mmHg for TGM1 and up to 52 mmHg for TGM6 (FIG. 4 and Table 3). […] [table]

A further experiment concerns HeLa (cervix). Description: growth inhibition of human tumour cells, 72 h incubation. It counts as cell-based. The settings on record: 72 hours of incubation. Here is the method:
(§1) On the one hand, human cells of different types of cancer were used. The cells were incubated at 37° C. and 5% of CO2 in air, in culture medium RPMI1640 or DMEM with bovine foetal serum (10%) and other supplements and in the presence or absence of the triglycerides of the present invention at different concentrations during 72 hours. It was possible to observe that the hydroxy-triglycerides of the invention have a high efficacy against the growth of human tumour cells, but not against the growth of normal non-tumour cells (human fibroblasts, MRC5).

In a further experiment the test system is PC3 (prostate). The experiment is described as above. It counts as cell-based. The settings on record: 72 hours of incubation. Here is the method:
as §1

In another experiment the test system is SF767 (glioma). The description is as above. It counts as cell-based. The settings on record: 72 hours of incubation. Here is the method: as §1
A further experiment concerns MDA-MB231 (breast). The experiment is described as above. It counts as cell-based. Conditions: 72 hours of incubation. Here is the method:
as §1

The next experiment deals with MIA-PaCa-2 (pancreas). The experiment is described as above. It counts as cell-based. Conditions: 72 hours of incubation. Here is the method:
as §1

The subject of experiment [1] is Jurkat (lymphoblastic leukaemia). Described as above. Conditions: 72 hours of incubation. It counts as cell-based. Here is the method: as §1
The next experiment has as its system U87M (glioma). The description is as above. It counts as cell-based. Conditions: 72 hours of incubation. As to the method:
as §1

The subject of the next experiment is A549 (lung). The description is as above. It counts as cell-based. The settings on record: 72 hours of incubation. Here is the method:
as §1

The subject of a further experiment is HT-29 (colon). Described as above. Format: cell-based. Conditions: 72 hours of incubation. As to the method:
as §1

In a further experiment the test system is BXPC3 (pancreas). The experiment is described as above. The settings on record: 72 hours of incubation. Format: cell-based. As to the method: as §1
The test system of the next experiment is NCI1975D (lung). Described as above. Conditions: 72 hours of incubation. Format: cell-based. Here is the method:
as §1

Another experiment has as its system SH-SY5Y (neuroblastoma). The description is as above. Format: cell-based. The settings on record: 72 hours of incubation. As to the method:
as §1

Experiment [2] relates to HL-60 (myeloblastic leukaemia). The description is as above. It counts as cell-based. Conditions: 72 hours of incubation. As to the method: as §1
Another experiment relates to HepG2 (liver carcinoma). The description is as above. Format: cell-based. The settings on record: 72 hours of incubation. Here is the method: as §1
Experiment [3] deals with MRC5 (non-tumour) human fibroblasts. The experiment is described as follows: growth inhibition of normal non-tumour cells, 72 h incubation. It counts as cell-based. Conditions: 72 hours of incubation. As to the method:
as §1

The test system of another experiment is plasma glucose. Description: plasma glucose in spontaneously hypertensive rats. Format: in vivo. The settings on record: SHR rats, 9 days, 400 mg/kg every 12 hours, p.o.; fasting 12 hours. An excerpt: Metabolic and cardiovascular pathologies are closely related. The overfeeding which characterises our society not only gives rise to problems of obesity and excess weight. It is also linked to the appearance of diabetes, dyslipidaemia, hypertension, strokes, arteriosclerosis, ictus, etc. All of these pathologies increase the risk of premature death and can even cause death. In this sense, certain natural oils show a certain efficacy against this type of pathologies, but their power is limited. In contrast, the molecules of the invention have an important effect against the development of this type of pathologies. To be able to study the effects of the compounds of the invention for the prevention and treatment of metabolic and cardiovascular pathologies, hypertensive rats were used (SHR strain, spontaneously hypertensive rats). These rats present obesity, high blood pressure, dyslipidaemia (hypercholesterolemia and hypertriglyceridemia), diabetes, metabolic syndrome and other related health problems. At the same time, research was conducted into the efficacy of the hydroxy-triglycerides for controlling the high levels of glycaemia in SHR rats, and therefore, preventing or curing diabetes. Hypertensive rats (SHR) with an approximate weight of 300 grams were treated with TGM1 during 9 days (400 mg/kg, every 12 h, p.o.). Plasma glucose was measured before starting the treatment (basal) and 9 days later. In all cases, the plasma measurements were conducted in rats kept fasting during 12 hours. In this way, after 9 days of treatment, the levels of glucose in blood were reduced by up to more than 25% for the molecules of the invention (FIG. 5 and Table 4). [table]

The test system of experiment [4] is transgenic rat with 5 mutations of human familial Alzheimer's (Tag). The experiment is described as follows: radial maze test in transgenic rats with Alzheimer's. Format: in vivo. Conditions: for Errors made in the radial maze: Tag rats, 50 mg/kg p.o. daily, 100% = healthy animals without Alzheimer's. Here is the method: In order to study Alzheimer's disease a transgenic rat model was used with 5 mutations which appear in human familiar Alzheimer's (symbolised as Tag, and abbreviated Tg). This model of Alzheimer's is very severe, and the animals already show a cognitive deficit at 2 months of age. To carry out this experiment, both young rats (of 3 months of age) and aged rats (of 10 months of age) were used and treated for 3 months with the hydroxy-triglycerides of the present invention (50 mg/kg day, p.o.). The rats were subjected to a low-calorie diet so that they would be hungry and carry out a test in a radial maze, in which food was placed in 4 of the device's 8 arms (asymmetrically), quantifying the number of errors committed until the exercise was completed. […]
The control animals were treated with vehicle (saline) and the rest with 50 mg/kg (p.o.) daily of the indicated compound.

Broadly, the IC50 is the concentration at which inhibition is half-maximal. A higher IC50 goes with weaker potency in that assay. As for `CCC=CCC=CCC=CCC=CCC=CCC=CCC(O)C(=O)OCC(COC(=O)C(O)CC=CCC=CCC=CCC=CCC=CCC=CCC)OC(=O)C(O)CC=CCC=CCC=CCC=CCC=CCC=CCC` (centres unmarked) [TGM6, 1,2,3-tri(2′-hydroxy-docosa-4′,7′,10′,13′,16′,19′-hexanoyl)glycerol], in the experiment on systolic blood pressure (14-day treatments with 600 mg/kg), the “drops in systolic blood pressure” value is “up to 52 mmHg”. In addition, the “Δ SP, change in systolic blood pressure” value in the experiment on systolic blood pressure is −52 mmHg. The IC50 in the experiment with HeLa (cervix) stood at 12 µM; in the experiment on PC3 (prostate), 5 µM; in the experiment with SF767 (glioma), 41 µM; in the experiment on MDA-MB231 (breast), 9 µM; in the experiment on MIA-PaCa-2 (pancreas) it was 29 µM; in [1], 25 µM. Moreover, the IC50 with U87M (glioma) is 36 µM; with A549 (lung) it was 1 µM; in the experiment with HT-29 (colon) it was 34 µM; in the experiment on BXPC3 (pancreas), 18 µM; in the experiment with NCI1975D (lung), 21 µM; in the experiment on SH-SY5Y (neuroblastoma), 7 µM. Besides, the IC50 was 6 µM in experiment [2], 30 µM in the experiment with HepG2 (liver carcinoma) and greater than 500 µM in [3]. Also, the “Δ G, change in glucose levels in plasma” value in the experiment on plasma glucose is -16 mg/dL. The “Errors made in the radial maze” value in [4] came out at 84.7%. Further, the “number of errors in the radial maze (FIG. 7A)” value in [4] (young and aged Tg rats, 3 months, 50 mg/kg day p.o., errors of first week of tests = 100%) is on record as “below 100%”.
Take `CCCCCC=CCC=CCCCCCCC(O)C(=O)OCC(COC(=O)C(O)CCCCCCC=CCC=CCCCCC)OC(=O)C(O)CCCCCCC=CCC=CCCCCC` (centres unmarked) [TGM2, 1,2,3-tri(2′-hydroxy-octadec-9′,12′-dienoyl)glycerol]: the “Δ SP, change in systolic blood pressure” value in the experiment on systolic blood pressure was −41 mmHg. For the same compound, the IC50 in the experiment with HeLa (cervix) is 147 µM; in the experiment with PC3 (prostate), 42 µM; with SF767 (glioma) it was 31 µM; in the experiment on MDA-MB231 (breast) it was 57 µM; with MIA-PaCa-2 (pancreas), 77 µM; in experiment [1] it was 67 µM. Besides, the IC50 with U87M (glioma) was 56 µM; in the experiment on A549 (lung) it was 2 µM; in the experiment with HT-29 (colon), 132 µM; in the experiment with BXPC3 (pancreas), 31 µM; in the experiment with NCI1975D (lung), 54 µM; in the experiment on SH-SY5Y (neuroblastoma), 74 µM. Further, the IC50 in experiment [2] is 114 µM; with HepG2 (liver carcinoma) it was 25 µM; in experiment [3], greater than 500 µM. For the same compound, the “Δ G, change in glucose levels in plasma” value with plasma glucose was -7 mg/dL. For the same compound, in experiment [4], the “Errors made in the radial maze” value is 143.2%.
Regarding `CCCCCC=CCC=CCC=CCC=CCCC(O)C(=O)OCC(COC(=O)C(O)CCC=CCC=CCC=CCC=CCCCCC)OC(=O)C(O)CCC=CCC=CCC=CCC=CCCCCC` (centres unmarked) [TGM4, 1,2,3-tri(2′-hydroxy-eicosa-5′,8′,11′,14′-tetraenoyl)glycerol], the “Δ SP, change in systolic blood pressure” value with systolic blood pressure was −43 mmHg. The IC50 was 6 µM with HeLa (cervix); 18 µM with PC3 (prostate); 21 µM with SF767 (glioma); 36 µM in the experiment with MDA-MB231 (breast); 43 µM with MIA-PaCa-2 (pancreas); 151 µM in experiment [1]. The IC50 in the experiment on U87M (glioma) came out at 17 µM; with A549 (lung), 0.9 µM; in the experiment on HT-29 (colon), 11 µM; in the experiment with BXPC3 (pancreas), 72 µM; in the experiment on NCI1975D (lung), 10 µM; with SH-SY5Y (neuroblastoma), 27 µM. The IC50 in experiment [2] is 32 µM; in the experiment on HepG2 (liver carcinoma), 22 µM; in experiment [3], greater than 500 µM. For the same compound, the “Δ G, change in glucose levels in plasma” value with plasma glucose was -5 mg/dL. In addition, the “Errors made in the radial maze” value in experiment [4] stood at 101.0%.
